Where two headings read alike, the source gives them in different places.
What was measured:
Assay in all cases: KINOMEscan (ScanMAX) kinase profiling
Type in all cases: binding
panel of 468 kinases [1] = target: T1, panel of 468 kinases (Homo sapiens, UniProt O94806); details: PRKD3; 1 μM; read-out: % control
T1 construct: purchased KINOMEscan (ScanMAX) service
T1 sequence (O94806 1-890): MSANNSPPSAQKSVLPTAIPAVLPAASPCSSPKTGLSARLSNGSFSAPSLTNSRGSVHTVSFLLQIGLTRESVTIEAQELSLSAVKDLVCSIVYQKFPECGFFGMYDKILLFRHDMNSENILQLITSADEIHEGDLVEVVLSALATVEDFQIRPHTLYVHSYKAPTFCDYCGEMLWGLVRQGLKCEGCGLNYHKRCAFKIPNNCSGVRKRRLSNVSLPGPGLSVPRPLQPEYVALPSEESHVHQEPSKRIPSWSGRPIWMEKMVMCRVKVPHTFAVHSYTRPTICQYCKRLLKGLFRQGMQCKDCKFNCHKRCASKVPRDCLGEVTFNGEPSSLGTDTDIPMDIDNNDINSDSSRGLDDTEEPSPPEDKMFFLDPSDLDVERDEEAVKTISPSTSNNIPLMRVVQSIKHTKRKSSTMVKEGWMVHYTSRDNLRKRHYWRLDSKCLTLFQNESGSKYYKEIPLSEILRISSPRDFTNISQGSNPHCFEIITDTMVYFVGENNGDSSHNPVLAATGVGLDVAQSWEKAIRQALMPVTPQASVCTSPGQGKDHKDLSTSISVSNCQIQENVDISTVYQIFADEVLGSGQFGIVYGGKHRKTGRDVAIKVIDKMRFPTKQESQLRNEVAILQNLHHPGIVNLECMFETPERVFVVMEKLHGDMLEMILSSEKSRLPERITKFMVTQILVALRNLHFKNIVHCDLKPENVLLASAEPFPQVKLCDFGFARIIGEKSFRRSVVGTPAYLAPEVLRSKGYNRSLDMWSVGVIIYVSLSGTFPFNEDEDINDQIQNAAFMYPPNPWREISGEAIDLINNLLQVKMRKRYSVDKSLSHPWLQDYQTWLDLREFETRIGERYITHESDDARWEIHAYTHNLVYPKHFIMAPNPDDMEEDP

panel of 468 kinases [2] = target: T2, panel of 468 kinases (Homo sapiens, UniProt P00519); details: 1 μM, read-out: % control
T2 construct: purchased KINOMEscan (ScanMAX) service
T2 sequence (P00519 whole entry): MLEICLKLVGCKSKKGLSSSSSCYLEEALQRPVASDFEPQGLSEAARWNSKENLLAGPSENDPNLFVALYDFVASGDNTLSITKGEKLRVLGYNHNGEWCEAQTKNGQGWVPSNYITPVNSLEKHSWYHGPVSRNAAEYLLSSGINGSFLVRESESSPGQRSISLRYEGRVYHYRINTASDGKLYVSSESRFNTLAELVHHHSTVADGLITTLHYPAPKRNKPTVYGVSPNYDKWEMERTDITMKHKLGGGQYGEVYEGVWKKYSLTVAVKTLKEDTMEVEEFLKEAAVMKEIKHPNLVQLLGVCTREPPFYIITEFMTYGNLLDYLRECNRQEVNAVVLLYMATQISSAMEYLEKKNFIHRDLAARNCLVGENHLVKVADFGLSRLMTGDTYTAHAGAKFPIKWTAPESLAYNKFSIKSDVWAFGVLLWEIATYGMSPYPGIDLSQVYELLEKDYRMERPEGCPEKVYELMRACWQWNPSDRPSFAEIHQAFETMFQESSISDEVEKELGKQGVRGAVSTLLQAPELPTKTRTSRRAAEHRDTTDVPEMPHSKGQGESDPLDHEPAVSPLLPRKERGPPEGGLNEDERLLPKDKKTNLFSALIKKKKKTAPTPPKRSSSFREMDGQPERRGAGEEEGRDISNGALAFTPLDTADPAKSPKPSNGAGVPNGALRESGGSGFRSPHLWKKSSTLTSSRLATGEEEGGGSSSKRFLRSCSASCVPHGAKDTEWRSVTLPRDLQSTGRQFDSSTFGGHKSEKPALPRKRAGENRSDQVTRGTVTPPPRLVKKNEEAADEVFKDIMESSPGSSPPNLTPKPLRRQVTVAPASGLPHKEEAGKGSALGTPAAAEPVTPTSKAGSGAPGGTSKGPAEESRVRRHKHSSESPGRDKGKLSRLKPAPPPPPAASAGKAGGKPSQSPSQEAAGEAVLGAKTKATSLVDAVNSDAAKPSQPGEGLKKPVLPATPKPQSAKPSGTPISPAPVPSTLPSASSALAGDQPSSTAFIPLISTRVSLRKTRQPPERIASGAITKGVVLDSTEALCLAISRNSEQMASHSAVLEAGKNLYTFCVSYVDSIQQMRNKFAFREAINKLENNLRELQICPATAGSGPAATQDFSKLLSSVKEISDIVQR

panel of 468 kinases [3] = target: T3, panel of 468 kinases (Homo sapiens, UniProt P04626); details: ERBB2; 1 μM; read-out: % control
T3 construct: purchased KINOMEscan (ScanMAX) service
T3 sequence (P04626 23-1255): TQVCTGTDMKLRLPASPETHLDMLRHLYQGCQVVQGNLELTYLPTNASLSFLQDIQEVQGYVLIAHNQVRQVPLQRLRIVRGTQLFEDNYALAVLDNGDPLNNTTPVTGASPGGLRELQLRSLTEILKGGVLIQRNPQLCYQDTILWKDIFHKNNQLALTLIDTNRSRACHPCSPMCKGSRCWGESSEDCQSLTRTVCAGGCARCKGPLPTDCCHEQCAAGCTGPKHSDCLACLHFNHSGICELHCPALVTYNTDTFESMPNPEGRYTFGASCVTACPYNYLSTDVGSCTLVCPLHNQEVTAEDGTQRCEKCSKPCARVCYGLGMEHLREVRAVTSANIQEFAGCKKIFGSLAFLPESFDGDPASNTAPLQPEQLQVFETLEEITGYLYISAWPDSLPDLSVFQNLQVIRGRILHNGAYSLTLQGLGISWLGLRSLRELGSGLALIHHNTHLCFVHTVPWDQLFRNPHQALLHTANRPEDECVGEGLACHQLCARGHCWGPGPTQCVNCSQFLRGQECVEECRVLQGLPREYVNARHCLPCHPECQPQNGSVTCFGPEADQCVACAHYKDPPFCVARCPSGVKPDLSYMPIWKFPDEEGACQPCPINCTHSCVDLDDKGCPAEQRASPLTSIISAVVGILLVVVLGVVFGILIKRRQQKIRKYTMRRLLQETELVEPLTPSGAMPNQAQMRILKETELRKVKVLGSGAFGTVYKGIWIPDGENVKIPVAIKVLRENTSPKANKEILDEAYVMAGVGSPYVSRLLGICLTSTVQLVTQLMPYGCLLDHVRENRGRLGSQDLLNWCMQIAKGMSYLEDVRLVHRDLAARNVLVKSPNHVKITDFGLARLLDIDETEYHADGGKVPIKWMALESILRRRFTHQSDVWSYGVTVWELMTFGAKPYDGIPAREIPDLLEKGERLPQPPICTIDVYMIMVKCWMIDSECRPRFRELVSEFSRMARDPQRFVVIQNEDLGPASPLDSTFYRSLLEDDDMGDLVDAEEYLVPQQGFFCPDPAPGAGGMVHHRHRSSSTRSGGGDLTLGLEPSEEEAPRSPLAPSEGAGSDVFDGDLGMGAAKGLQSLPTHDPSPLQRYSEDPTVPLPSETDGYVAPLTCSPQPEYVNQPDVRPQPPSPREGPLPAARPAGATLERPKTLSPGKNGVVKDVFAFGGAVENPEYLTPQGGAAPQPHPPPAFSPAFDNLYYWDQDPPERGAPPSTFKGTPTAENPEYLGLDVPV

panel of 468 kinases [4] = target: T4, panel of 468 kinases (Homo sapiens, UniProt P15056); details: BRAF; 1 μM; read-out: % control
T4 construct: purchased KINOMEscan (ScanMAX) service

panel of 468 kinases [5] = target: T5, panel of 468 kinases (Homo sapiens, UniProt P54646); details: AMPK-alpha2; 1 μM; read-out: % control
T5 construct: purchased KINOMEscan (ScanMAX) service
T5 sequence (P54646 whole entry): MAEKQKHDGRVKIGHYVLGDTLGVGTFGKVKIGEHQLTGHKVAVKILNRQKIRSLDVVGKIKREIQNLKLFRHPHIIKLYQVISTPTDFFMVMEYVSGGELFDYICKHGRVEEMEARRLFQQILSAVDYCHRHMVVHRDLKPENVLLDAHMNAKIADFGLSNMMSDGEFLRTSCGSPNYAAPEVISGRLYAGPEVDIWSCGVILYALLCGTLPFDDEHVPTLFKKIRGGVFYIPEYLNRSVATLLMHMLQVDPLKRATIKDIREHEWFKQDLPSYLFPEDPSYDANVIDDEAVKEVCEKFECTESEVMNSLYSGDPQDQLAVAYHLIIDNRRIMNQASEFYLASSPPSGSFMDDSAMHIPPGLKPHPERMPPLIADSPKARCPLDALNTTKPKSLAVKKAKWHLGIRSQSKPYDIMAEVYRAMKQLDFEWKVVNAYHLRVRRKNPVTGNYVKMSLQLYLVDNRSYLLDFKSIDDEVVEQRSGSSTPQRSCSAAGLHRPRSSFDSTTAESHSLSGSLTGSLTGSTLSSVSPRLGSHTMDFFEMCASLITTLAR

panel of 468 kinases [6] = target: T6, panel of 468 kinases (Homo sapiens, UniProt P68400); details: CSNK2A1; 1 μM; read-out: % control
T6 construct: purchased KINOMEscan (ScanMAX) service

panel of 468 kinases [7] = target: T7, panel of 468 kinases (Homo sapiens, UniProt Q07002); details: PCTK3; 1 μM; read-out: % control
T7 construct: purchased KINOMEscan (ScanMAX) service
T7 sequence (Q07002 whole entry): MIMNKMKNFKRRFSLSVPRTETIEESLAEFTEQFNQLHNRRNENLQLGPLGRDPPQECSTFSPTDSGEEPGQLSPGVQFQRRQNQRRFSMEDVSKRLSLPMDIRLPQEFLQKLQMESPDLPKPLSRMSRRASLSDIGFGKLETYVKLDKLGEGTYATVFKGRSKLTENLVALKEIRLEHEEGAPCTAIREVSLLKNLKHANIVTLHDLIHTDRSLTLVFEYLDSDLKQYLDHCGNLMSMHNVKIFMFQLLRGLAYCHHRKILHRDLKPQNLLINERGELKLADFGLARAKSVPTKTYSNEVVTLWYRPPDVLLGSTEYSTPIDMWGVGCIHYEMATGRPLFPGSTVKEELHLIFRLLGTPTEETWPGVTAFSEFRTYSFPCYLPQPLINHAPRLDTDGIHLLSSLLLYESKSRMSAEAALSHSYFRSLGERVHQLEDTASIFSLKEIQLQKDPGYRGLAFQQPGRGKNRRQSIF

panel of 468 kinases [8] = target: T8, panel of 468 kinases (Homo sapiens, UniProt Q13554); details: CAMK2B; 1 μM; read-out: % control
T8 construct: purchased KINOMEscan (ScanMAX) service

panel of 468 kinases [9] = target: T9, panel of 468 kinases (Homo sapiens, UniProt Q14289); details: PYK2; 1 μM; read-out: % control
T9 construct: purchased KINOMEscan (ScanMAX) service
T9 sequence (Q14289 whole entry): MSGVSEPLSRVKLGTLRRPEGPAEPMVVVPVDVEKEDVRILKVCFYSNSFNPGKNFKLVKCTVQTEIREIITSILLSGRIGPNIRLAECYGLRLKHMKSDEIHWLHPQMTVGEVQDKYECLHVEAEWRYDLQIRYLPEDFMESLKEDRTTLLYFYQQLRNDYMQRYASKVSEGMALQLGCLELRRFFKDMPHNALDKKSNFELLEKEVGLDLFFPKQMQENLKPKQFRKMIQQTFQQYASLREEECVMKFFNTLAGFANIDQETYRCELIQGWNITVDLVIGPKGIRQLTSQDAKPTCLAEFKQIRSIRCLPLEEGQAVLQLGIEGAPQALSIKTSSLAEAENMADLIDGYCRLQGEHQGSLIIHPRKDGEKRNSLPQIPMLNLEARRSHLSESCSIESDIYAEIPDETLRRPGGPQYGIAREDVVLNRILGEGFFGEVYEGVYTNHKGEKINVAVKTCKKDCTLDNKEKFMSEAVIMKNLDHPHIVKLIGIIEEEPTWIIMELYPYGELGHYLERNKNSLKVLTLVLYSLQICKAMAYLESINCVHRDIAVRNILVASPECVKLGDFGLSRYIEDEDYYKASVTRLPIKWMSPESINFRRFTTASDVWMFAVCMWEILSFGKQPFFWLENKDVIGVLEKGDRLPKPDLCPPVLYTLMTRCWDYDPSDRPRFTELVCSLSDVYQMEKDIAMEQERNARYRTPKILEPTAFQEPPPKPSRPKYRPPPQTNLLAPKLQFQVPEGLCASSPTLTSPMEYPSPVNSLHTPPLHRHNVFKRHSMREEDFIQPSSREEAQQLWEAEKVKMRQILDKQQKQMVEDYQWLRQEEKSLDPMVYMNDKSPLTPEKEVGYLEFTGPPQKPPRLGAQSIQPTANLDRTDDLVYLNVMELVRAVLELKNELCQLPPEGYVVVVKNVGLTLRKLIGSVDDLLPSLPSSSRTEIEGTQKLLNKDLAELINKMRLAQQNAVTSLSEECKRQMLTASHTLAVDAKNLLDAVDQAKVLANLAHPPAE

panel of 468 kinases [10] = target: T10, panel of 468 kinases (Homo sapiens, UniProt Q15375); details: EPHA7; 1 μM; read-out: % control
T10 construct: purchased KINOMEscan (ScanMAX) service

panel of 468 kinases [11] = target: T11, panel of 468 kinases (Homo sapiens, UniProt Q9BYT3); details: STK33; 1 μM; read-out: % control
T11 construct: purchased KINOMEscan (ScanMAX) service
T11 sequence (Q9BYT3 whole entry): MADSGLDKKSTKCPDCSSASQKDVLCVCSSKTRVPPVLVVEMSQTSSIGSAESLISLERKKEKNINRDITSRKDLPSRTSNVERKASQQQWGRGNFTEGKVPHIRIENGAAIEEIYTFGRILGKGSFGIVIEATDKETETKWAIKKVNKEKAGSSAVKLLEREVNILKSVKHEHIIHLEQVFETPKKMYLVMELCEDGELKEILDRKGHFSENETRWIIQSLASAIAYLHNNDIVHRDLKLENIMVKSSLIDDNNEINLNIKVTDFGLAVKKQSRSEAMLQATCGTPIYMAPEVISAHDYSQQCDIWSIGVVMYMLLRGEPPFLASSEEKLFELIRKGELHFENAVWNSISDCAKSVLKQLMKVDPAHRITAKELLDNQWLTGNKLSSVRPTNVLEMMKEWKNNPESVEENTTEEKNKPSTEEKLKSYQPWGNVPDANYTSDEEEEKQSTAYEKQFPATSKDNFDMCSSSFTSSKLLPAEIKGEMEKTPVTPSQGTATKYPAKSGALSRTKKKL

panel of 468 kinases [12] = target: T12, panel of 468 kinases (Homo sapiens, UniProt Q9UHD2); details: TBK1; 1 μM; read-out: % control
T12 construct: purchased KINOMEscan (ScanMAX) service
T12 sequence (Q9UHD2 1-729): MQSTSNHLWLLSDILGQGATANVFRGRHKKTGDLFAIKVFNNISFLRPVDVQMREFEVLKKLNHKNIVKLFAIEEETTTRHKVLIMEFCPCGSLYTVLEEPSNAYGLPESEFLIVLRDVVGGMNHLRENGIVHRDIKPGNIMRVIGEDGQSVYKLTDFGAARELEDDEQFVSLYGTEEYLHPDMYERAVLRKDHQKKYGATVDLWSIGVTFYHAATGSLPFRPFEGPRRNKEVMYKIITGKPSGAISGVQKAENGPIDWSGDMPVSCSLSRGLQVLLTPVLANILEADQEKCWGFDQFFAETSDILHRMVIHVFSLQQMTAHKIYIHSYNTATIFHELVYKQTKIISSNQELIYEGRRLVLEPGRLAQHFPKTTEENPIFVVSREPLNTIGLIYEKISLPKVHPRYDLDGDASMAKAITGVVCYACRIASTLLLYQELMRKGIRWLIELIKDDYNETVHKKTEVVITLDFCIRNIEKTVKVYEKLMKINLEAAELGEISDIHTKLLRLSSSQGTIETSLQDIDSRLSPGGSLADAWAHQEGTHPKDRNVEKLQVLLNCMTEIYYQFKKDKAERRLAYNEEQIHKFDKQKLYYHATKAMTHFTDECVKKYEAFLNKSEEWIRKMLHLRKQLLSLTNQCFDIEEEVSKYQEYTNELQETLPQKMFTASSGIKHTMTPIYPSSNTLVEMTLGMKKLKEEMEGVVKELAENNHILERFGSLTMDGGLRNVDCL

panel of 468 kinases [13] = target: T13, panel of 468 kinases (Plasmodium falciparum, UniProt P62344); details: PFCDPK1(P.falciparum); 1 μM; read-out: % control
T13 construct: purchased KINOMEscan (ScanMAX) service

Row | SMILES | remaining binding at 1 µM (panel of 468 kinases [1]) [%] | remaining binding at 1 µM (panel of 468 kinases [2]; ABL1-nonphosphorylated) [%] | remaining binding at 1 µM (panel of 468 kinases [2]; ABL1-phosphorylated) [%] | remaining binding at 1 µM (panel of 468 kinases [3]) [%] | remaining binding at 1 µM (panel of 468 kinases [4]) [%] | remaining binding at 1 µM (panel of 468 kinases [5]) [%] | remaining binding at 1 µM (panel of 468 kinases [6]) [%] | remaining binding at 1 µM (panel of 468 kinases [7]) [%] | remaining binding at 1 µM (panel of 468 kinases [8]) [%] | remaining binding at 1 µM (panel of 468 kinases [9]) [%] | remaining binding at 1 µM (panel of 468 kinases [10]) [%] | remaining binding at 1 µM (panel of 468 kinases [11]) [%] | remaining binding at 1 µM (panel of 468 kinases [12]) [%] | remaining binding at 1 µM (panel of 468 kinases [13]) [%]
1 | CNc1nc(Nc2ccc(S(=O)(=O)N3CCC(N4CCOCC4)CC3)cc2OC)nc2[nH]cc(Cl)c12 [Compound 12, 5-chloro-N2-(2-methoxy-4-((4-morpholinopiperidin-1-yl)sulfonyl)phenyl)-N4-methyl-7H-pyrrolo[2,3-d]pyrimidine-2,4-diamine] | 28 | 80 | 72 | 80 | 93 | 82 | 63 | 100 | 100 | 35 | 100 | 10 | 95 | 97
2 | CNc1nc(Nc2ccc(P3(=O)CCN(C4CCOCC4)CC3)cc2OC)nc2[nH]cc(Cl)c12 [Compound 77, 4-(4-((5-chloro-4-(methylamino)-7H-pyrrolo[2,3-d]pyrimidin-2-yl)amino)-3-methoxyphenyl)-1-(tetrahydro-2H-pyran-4-yl)-1,4-azaphosphinane 4-oxide] | 13 | 92 | 80 | 99 | 97 | 90 | 59 | 100 | 92 | 27 | 100 | 6.9 | 85 | 90
3 | CNc1nc(Nc2ccc(C(=O)N3CCC(N4CCOCC4)CC3)c3c2OCO3)nc2[nH]cc(Cl)c12 [Compound 75, (7-((5-chloro-4-(methylamino)-7H-pyrrolo[2,3-d]pyrimidin-2-yl)amino)benzo[d][1,3]dioxol-4-yl)(4-morpholinopiperidin-1-yl)methanone] | 4 | 94 | 80 | 85 | 100 | 87 | 24 | 100 | 94 | 40 | 100 | 7.2 | 34 | 99

Reference: patent US12479847B2 (DANA-FARBER CANCER INSTITUTE, INC., priority 2019, dated 2025)
